# Results published in ChEMBL document CHEMBL1649565, “Besifloxacin, a novel fluoroquinolone, has broad-spectrum in vitro activity against aerobic and anaerobic bacteria” (Antimicrob Agents Chemother, 2009).
# The source made the active and inactive calls. The rule behind the calls is not given here.
# Legend:
# [1] = system: Peptostreptococcus sp.; experiment: Antibacterial activity against Peptostreptococcus sp. assessed as percent susceptible isolates by CLSI M11-A7 method; format: functional
# [2] = system: Peptostreptococcus sp.; experiment: Antibacterial activity against Peptostreptococcus sp. by CLSI M11-A7 method; format: functional
# [3] = system: Bacteroides fragilis; experiment: Antibacterial activity against Bacteroides fragilis by CLSI M11-A7 method; format: functional
# [4] = system: Bacteroides fragilis; experiment: Antibacterial activity against Bacteroides fragilis assessed as percent susceptible isolates by CLSI M11-A7 method; format: functional
# [5] = system: Prevotella sp.; experiment: Antibacterial activity against Prevotella sp. by CLSI M11-A7 method; format: functional
# [6] = system: Fusobacterium sp.; experiment: Antibacterial activity against Fusobacterium sp. by CLSI M11-A7 method; format: functional
# [7] = system: Clostridium perfringens; experiment: Antibacterial activity against Clostridium perfringens by CLSI M11-A7 method; format: functional
# [8] = system: Prevotella sp.; experiment: Antibacterial activity against Prevotella sp. assessed as percent susceptible isolates by CLSI M11-A7 method; format: functional
# [9] = system: Fusobacterium sp.; experiment: Antibacterial activity against Fusobacterium sp. assessed as percent susceptible isolates by CLSI M11-A7 method; format: functional
# [10] = system: Cutibacterium acnes; experiment: Antibacterial activity against Propionibacterium acnes by CLSI M11-A7 method; format: functional
# [11] = system: Cutibacterium acnes; experiment: Antibacterial activity against Propionibacterium acnes assessed as percent susceptible isolates by CLSI M11-A7 method; format: functional
# [12] = system: Staphylococcus hominis; experiment: Antibacterial activity against Staphylococcus hominis by CLSI M100-S18 method; format: functional
# [13] = system: Staphylococcus saprophyticus; experiment: Antibacterial activity against Staphylococcus saprophyticus by CLSI M100-S18 method; format: functional
# [14] = system: Staphylococcus warneri; experiment: Antibacterial activity against Staphylococcus warneri by CLSI M100-S18 method; format: functional
# [15] = system: Staphylococcus epidermidis; experiment: Antibacterial activity against ciprofloxacin-susceptible and methicillin-resistant Staphylococcus epidermidis assessed as percent susceptible isolates by CLSI M100-S18 method; format: functional
# [16] = system: Staphylococcus epidermidis; experiment: Antibacterial activity against non-ciprofloxacin-susceptible and methicillin-susceptible Staphylococcus epidermidis by CLSI M100-S18 method; format: functional
# [17] = system: Staphylococcus hominis; experiment: Antibacterial activity against Staphylococcus hominis assessed as percent susceptible isolates by CLSI M100-S18 method; format: functional
# [18] = system: Staphylococcus epidermidis; experiment: Antibacterial activity against non-ciprofloxacin-susceptible and methicillin-susceptible Staphylococcus epidermidis assessed as percent susceptible isolates by CLSI M100-S18 method; format: functional
# [19] = system: Staphylococcus aureus; experiment: Antibacterial activity against ciprofloxacin-susceptible and methicillin-resistant Staphylococcus aureus assessed as percent susceptible isolates by CLSI M100-S18 method; format: functional
# [20] = system: Staphylococcus haemolyticus; experiment: Antibacterial activity against Staphylococcus haemolyticus by CLSI M100-S18 method; format: functional
# [21] = system: Staphylococcus lugdunensis; experiment: Antibacterial activity against Staphylococcus lugdunensis by CLSI M100-S18 method; format: functional
# [22] = system: Staphylococcus aureus; experiment: Antibacterial activity against ciprofloxacin-susceptible and methicillin-resistant Staphylococcus aureus by CLSI M100-S18 method; format: functional
# [23] = system: Staphylococcus warneri; experiment: Antibacterial activity against Staphylococcus warneri assessed as percent susceptible isolates by CLSI M100-S18 method; format: functional
# [24] = system: Staphylococcus lugdunensis; experiment: Antibacterial activity against Staphylococcus lugdunensis assessed as percent susceptible isolates by CLSI M100-S18 method; format: functional
# [25] = system: Staphylococcus epidermidis
# [26] = system: Staphylococcus epidermidis; experiment: Antibacterial activity against ciprofloxacin-susceptible and methicillin-resistant Staphylococcus epidermidis by CLSI M100-S18 method; format: functional
# [27] = system: Staphylococcus saprophyticus; experiment: Antibacterial activity against Staphylococcus saprophyticus assessed as percent susceptible isolates by CLSI M100-S18 method; format: functional
# [28] = system: Staphylococcus aureus; experiment: Antibacterial activity against non-ciprofloxacin-susceptible and methicillin-susceptible Staphylococcus aureus assessed as percent susceptible isolates by CLSI M100-S18 method; format: functional
# [29] = system: Moraxella catarrhalis; experiment: Antibacterial activity against Moraxella catarrhalis by CLSI M7-A7 method; format: functional
# [30] = system: Staphylococcus haemolyticus; experiment: Antibacterial activity against Staphylococcus haemolyticus assessed as percent susceptible isolates by CLSI M100-S18 method; format: functional
# [31] = system: Staphylococcus aureus; experiment: Antibacterial activity against non-ciprofloxacin-susceptible and methicillin-susceptible Staphylococcus aureus by CLSI M100-S18 method; format: functional
# [32] = system: Staphylococcus epidermidis; remark: listed apart in the source
compound,measurement,setting,value
Cc1ncc([N+](=O)[O-])n1CCO [METRONIDAZOLE],Activity,[1],98.1%
same,MIC50,[2],0.5 µg/mL
same,MIC90,[2],1 µg/mL
same,MIC,[3],2 µg/mL
same,MIC50,[3],2 µg/mL
same,MIC90,[3],2 µg/mL
same,Activity,[4],100%
same,MIC50,[5],4 µg/mL
same,MIC90,[5],4 µg/mL
same,MIC50,[6],0.25 µg/mL
same,MIC90,[6],1 µg/mL
same,MIC50,[7],2 µg/mL
same,MIC90,[7],4 µg/mL
same,Activity,[8],100%
same,Activity,[9],100%
same,MIC,[10],> 16 µg/mL
same,MIC50,[10],> 16 µg/mL
same,MIC90,[10],> 16 µg/mL
same,Activity,[11],0%
Cc1onc(-c2ccccc2)c1C(=O)N[C@@H]1C(=O)N2[C@@H]1SC(C)(C)[C@@H]2C(=O)O [OXACILLIN],MIC50,[12],> 8 µg/mL
same,MIC90,[12],> 8 µg/mL
same,MIC50,[13],0.5 µg/mL
same,MIC90,[13],1 µg/mL
same,MIC50,[14],0.5 µg/mL
same,MIC90,[14],> 8 µg/mL
same,Activity,[15],55.6%
same,MIC50,[16],1 µg/mL
same,Activity,[17],16%
same,Activity,[18],16.7%
same,Activity,[19],78.9%
same,MIC50,[20],> 8 µg/mL
same,MIC90,[20],> 8 µg/mL
same,MIC50,[21],0.5 µg/mL
same,MIC90,[21],> 8 µg/mL
same,MIC50,[22],0.25 µg/mL
same,MIC90,[22],> 8 µg/mL
same,Activity,[23],46%
same,Activity,[24],60%
same,MIC90,[25],inactive
same,MIC50,[26],0.12 µg/mL
same,Activity,[27],9.9%
same,Activity,[28],36.4%
same,MIC50,[29],4 µg/mL
same,MIC90,[29],8 µg/mL
same,Activity,[30],31.7%
same,MIC50,[31],> 8 µg/mL
same,MIC90,[31],> 8 µg/mL
same,MIC90,[32],inactive
